Source: US20020034725A1, “SENSITIZATION OF CELLS TO RADIATION AND AND CHEMOTHERAPY” (priority 1996, published 2002)

Tests used:
FTase = FTase (Homo sapiens, UniProt P49354+P49356); details: cited from earlier work
GGTase I = GGTase I (Homo sapiens, UniProt P49354+P53609); details: cited from earlier work
H-ras = details: cited from earlier work
H-ras^v12 = assay: Western blot of H-ras farnesylation in H-ras transformed REF cells (3.7, 4R, 5R); assay type: cell-based, rat; details: 5R cells, dose of 32 μM
From the text: (§1) The oncogene-transfected cells used in this study were all derived from early passage rat embryo fibroblast (REF) by transfection with the pEJ plasmid containing the H-ras gene isolated from the EJ bladder carcinoma. This vector was introduced by calcium phosphate DNA transfer into primary REF, either alone or together with the pMC29 vector containing v-myc. One clone containing both the introduced H-ras gene and the v-myc genes is 3.7 (McKenna et al., 1990, Cancer Res. 50:97-102). 4R and 5R cells were obtained as rare transformants after transfection with the pEJ plasmid alone (McKenna et al., 1993, supra). MR4 cells were immortalized by transfection with an expression vector comprising v-myc linked to a neomycin-resistant selectable marker (McKenna et al., 1991, Radiat. Res. 125:283-287). REF-GG cells were obtained by transforming REF cells with a chimeric H-ras(v12) in which the CAAX motif is CVLL. All cell lines were mycoplasma free.
(§2) Cells were lysed in culture dishes with 1 x reducing Laemmli sample buffer. Samples were boiled, sheared and clarified by centrifugation at 14,000 rpm in a microfuge before storage at −20° C. Samples containing equal amounts of protein were separated on a 12% SDS polyacrylamide gel and electrophoretically transferred to nitrocellulose membranes. Membranes were blocked for 1-2 hours in PBS containing 0.1% Tween-20 and 5% powdered milk before antibody addition. Membranes were probed with monoclonal pan-ras antibody AB-4 (Oncogene Science, Uniondale, N.Y.) at a concentration of 0.5 μg/ml, or with monoclonal H-ras antibody LA069 (1:5000 dilution; Quality Biotech, Camden, N.J.). Detection of protein was accomplished using the ECL chemiluminescence kit (Amersham, Arlington Heights, Ill.). Images were digitized using an Arcus II scanner, and figures were assembled using Adobe Photoshop 3.0.
Transformed REF cells derived from the R5 cell line were treated with 5 μm FTI-277 to establish a time course for the accumulation of unfarnesylated H-ras. Prenylated forms of ras migrate more rapidly than unprenylated ras on SDSpolyacrylamide gels (Gutierrez et al., 1989, EMBO J. 8:1093-1098; Farh et al., 1995, Arch. Biochem. Biophys. 18:113-121). This shift in motility was used to assess the prenylation status of H-ras after farnesyltransferase inhibitor treatment.

wild type c-H-ras = assay: Western blot of ras farnesylation in untransformed REF and MR4 cells; assay type: cell-based, rat; details: MR4 cells
From the text: as §1, §2

H-ras^v12 CVLL = assay: Western blot of prenylation of chimeric H-ras in REF-GG cells; assay type: cell-based, rat; details: 24 hours, preliminary results
From the text: as §1
Cells were lysed in culture dishes with 1 x reducing Laemmli sample buffer. Samples were boiled, sheared and clarified by centrifugation at 14,000 rpm in a microfuge before storage at −20° C. Samples containing equal amounts of protein were separated on a 12% SDS polyacrylamide gel and electrophoretically transferred to nitrocellulose membranes. […]

Rap1A = details: cited from earlier work; for inhibition of Rap1A processing: whole cells
REF-GG cells = assay: SF2 by limiting dilution analysis of clonogens; assay type: cell-based, rat; details: 8 μM GGTI-298
Protocol: FIG. 14B comprises two graphs depicting clonogenic survival of REF-GG cells following treatment with GGTI-298 and irradiation. REF-GG cells were plated at 1 to 5 cells per well in microtiter plates in the absence (top panel) or presence (bottom panel) of 8 μM of the geranylgeranyltransferase inhibitor, GGTI-298. Cells were then irradiated with 2 Gray or were mock irradiated. Cells were re-fed after 24 hours with medium that contained no inhibitor, thus diluting the inhibitor to 0.8 μM. These cells were then incubated for two weeks prior to scoring for colony formation. The data are presented as the natural log of the fraction of negative wells. The surviving fraction at 2 Gray was determined from the differences in the slopes obtained by linear regression of analysis of irradiated and unirradiated cells. The surviving fraction at 2 Gray calculated for cells irradiated after GGTI-298 treatment was 0.64. Control cell surviving fraction after 2 Gray was 0.91. The correlation coefficient for linear regression analysis (r^2) was greater than 0.95 in all cases.
Cells were irradiated with the indicated doses of ionizing radiation and were treated with FTI-277 for 24 hours after irradiation (FIG. 14A). […] The shoulders of the survival curves were reduced as were the overall slopes of the survival curves. […]

K-ras = assay: Western blot of K-ras prenylation in SW480 and Panc-1 cells; assay type: cell-based, human; details: 8 μM GGTI-298 alone
Protocol: FIG. 17A is an image of a Western blot depicting inhibition by FTI-277 of K-ras prenylation in human SW480 colon carcinoma cells. SW480 cells were treated with the indicated concentrations of FTI-277 (μM) for 48 hours. Samples were harvested and cell lysates were analyzed by Western blotting using either a H-ras monoclonal antibody (top) or a K-ras monoclonal antibody (bottom). Arrows indicate unfarnesylated ras bands.
FIG. 18A is an image of a Western blot depicting the specific inhibition of K-ras prenylation by combined FTI-277 and GGTI-298 treatment. Log phase cultures of human pancreatic carcinoma cells (Panc-1) and colon carcinoma cells (SW480) were treated with 5 μM FTI and 8 μM GGTI 298 for 48 hours. Cell samples were then harvested and cell lysates were prepared for Western blot analysis using monoclonal antibodies to K-ras and nuclear lamin B. The electrophoretic mobility of the K-ras mutant in SW480 is slower than that of the mutant K-ras in Panc-1 cells.

CC(C)C[C@H](NC(=O)c1ccc(NC[C@@H](N)CS)cc1-c1cccc2ccccc12)C(=O)O [GGTI-297]
FTase inhibition (FTase): inhibitors of GGTase I and FTase | GGTase I inhibition (GGTase I): inhibitors of GGTase I and FTase | potency, less potent than GGTI-287 (GGTase I): 10 fold | selectivity for GGTase I over FTase (GGTase I; in vitro): 5 fold

CSCC[C@H](NC(=O)c1ccc(NC[C@@H](N)CS)cc1-c1ccccc1)C(=O)O [FTI-276]
FTase inhibition (FTase): inhibited Ftase activity

CC[C@H](C)[C@@H](CO[C@@H](Cc1ccccc1)C(=O)N[C@@H](CCS(C)(=O)=O)C(=O)OC)NC[C@@H](N)CS [L-739,749]
FTase inhibition (FTase): very potent inhibitors of FTase

farnesylmethyl-hydroxyphosphinylmethyl phosphoric acid
FTase inhibition (FTase): inhibit FTase

CC[C@H](C)[C@@H](CO[C@@H](Cc1ccccc1)C(=O)N[C@@H](CCS(C)(=O)=O)C(=O)O)NC[C@@H](N)CS [L-739,750]
FTase inhibition (FTase): very potent inhibitors of FTase

2-hydroxyfarnesylphosphonic acid
FTase inhibition (FTase): inhibit FTase | H-Ras processing (H-ras): inhibits H-Ras processing

COC(=O)[C@H](CC(C)C)NC(=O)c1ccc(NC[C@@H](N)CS)cc1-c1ccccc1 [GGTI-286]
inhibition of farnesylated H-ras^v12 (CVLS) (H-ras^v12): only partially inhibited | migration of endogenous wild-type c-H-ras (wild type c-H-ras): no effect on the migration of this protein | lowest dose with effective inhibition of geranylgeranylation of chimeric H-ras^v12 (H-ras^v12 CVLL): 4 µM | inhibition of Rap1A processing (Rap1A): potent inhibitor of posttranslational processing of Rap1A

O=C(Cc1ccncc1)N1CCC(=C2c3ccc(Cl)cc3CCc3cccnc32)CC1 [SCH-44342]
mode of FTase inhibition (FTase): competitive inhibitor of FTase

COC(=O)[C@H](CCSC)NC(=O)[C@H](/C=C\[C@@H](/C=C/[C@@H](N)CS)C(C)C)Cc1ccccc1 [B1086]
FTase inhibition (FTase): capable of inhibiting FTase

COCC[C@@H]1CN(C(=O)c2cccc3ccccc23)CCN1C[C@H](N)CS [L-745,631]
mode of FTase inhibition (FTase): competitive with respect to H-Ras binding to FTase | FTase activity in whole cells (H-ras; whole cells): inhibits FTase activity in whole cells

CC(C)C[C@H](NC(=O)c1ccc(NC[C@@H](N)CS)cc1-c1ccccc1)C(=O)O [GGTI-287]
increase in potency of inhibition of FTase (FTase; relative to GGTI-279): 20 fold | increase in potency of inhibition of GGTase I (GGTase I; relative to GGTI-279): 20 fold

(bz-(0)-His-Tyr-Ser [PD-15169]
FTase inhibition (FTase): inhibits FTase activity

CC[C@H](C)[C@@H](CO[C@@H](Cc1ccccc1)C(=O)N[C@@H](CCS(C)(=O)=O)C(=O)OC(C)C)NC[C@@H](N)CS [L-744,832]
farnesylation of endogenous H-ras (wild type c-H-ras; highest dose used): less susceptible to farnesylation inhibition

COC(=O)[C@H](CC(C)C)NC(=O)c1ccc(NC[C@@H](N)CS)cc1-c1cccc2ccccc12 [GGTI-298]
SF2 (surviving fraction at 2 Gray) (REF-GG cells): 0.64 | prenylation of K-ras (K-ras): no effect on prenylation of K-ras | FTase inhibition (FTase): inhibitors of GGTase I and FTase | GGTase I inhibition (GGTase I): inhibitors of GGTase I and FTase | Rap1A protein processing (Rap1A; concentration of 10 μM): completely inhibiting Rap1A protein processing | inhibition of Rap1A processing (Rap1A): as potent as GGTI-286 | H-ras processing (H-ras; concentration of 10 μM): without affecting H-ras processing

CSCC[C@H](NC(=O)c1ccc(NC[C@@H](N)CS)cc1)C(=O)O [FTI-249]
FTase inhibition (FTase): potent FTase inhibitor
